Read-outs that look alike come from different tables or passages of the source.
How the values were obtained:
HCoV-OC43 [1] = format: cell-based; conditions: Vero-E6/OC43; MOI 0.1, 72 hpi, real-time RT-PCR
Vero-E6 cells = experiment: Cell viability assay; format: cell-based, African green monkey; conditions: MTT, 72 h
SARS-CoV-2 [2] = format: cell-based
SARS-CoV-2 NP protein = format: cell-based
MRC-5 cells = experiment: Cell viability assay; format: cell-based, Human; conditions: for CC50: MRC-5 cells, MTT, 72 h
SARS-CoV-2 [3] = format: cell-based; conditions: Vero-E6/SARS-CoV-2; MOI 0.1, 72 hpi, real-time RT-PCR
HCoV-OC43 [4] = format: cell-based; conditions: for IC50: MRC-5/OC43, MOI 0.1, 72 hpi, viral genome copies by real-time RT-PCR; for relative viral genome copy number in cell lysates and supernatants: 20 μM
HCoV-OC43 [5] = format: cell-based; conditions: MRC-5, 72 hpi; 20 μM
HCoV-OC43 NP = format: cell-based; conditions: MRC-5, MOI 1; 20 μM

| Molecule | IC50 (HCoV-OC43 [1]) [µM] | CC50 (Vero-E6 cells) [µM] | reduction in SARS-CoV-2 yield (plaque assay) (SARS-CoV-2 [2]) [log] | reduction of SARS-CoV-2 NP protein expression (SARS-CoV-2 NP protein) [%] | CC50 (MRC-5 cells) [µM] | IC50 (SARS-CoV-2 [3]) [µM] | intra- and extra-cellular viral genome copy numbers (HCoV-OC43 [4]; MRC-5, MOI 0.1, Cl-A 100 μM, BB-Cl 2.5 μM) | IC50 (HCoV-OC43 [4]) [µM] | reduction of the viral titer (plaque assay) (HCoV-OC43 [5]) | OC43 NP protein expression levels (Western blot) (HCoV-OC43 NP) | inhibition of HCoV-OC43 replication rate (maximum within the range of concentrations tested) (HCoV-OC43 [4]; MRC-5, MOI 0.1, 72 hpi) [%] | relative viral genome copy number in cell lysates and supernatants (HCoV-OC43 [4]; MRC-5, MOI 0.1) | cell viability (MRC-5 cells; MRC-5, 20 μM) | viral replication (viral genome production) (HCoV-OC43 [4]; MRC-5, 20 μM) |
| --- | --- | --- | --- | --- | --- | --- | --- | --- | --- | --- | --- | --- | --- | --- |
| NC(=O)[C@H](CCCN=C(N)CCl)NC(=O)c1ccccc1 [Cl-amidine] | 44.1 | > 1000 | 1 | ~50 | 949 | 95.2 | drastically reduced | 34.8 |  |  |  |  |  |  |
| AFM30a |  |  |  |  | 321 |  |  | > 20 | barely detectable | slight decrease | ≤ 40 | much less pronounced reduction |  |  |
| GSK199 |  |  |  |  | 133 |  |  | 0.6 | ~2 log | dramatic downregulation |  | drastically reduced | viable | complete blockade of viral replication |
